Data: publication PMC5218480 (PLoS ONE, 2017)

System: MV-4-11 cells
Assay: Gene expression microarray analysis (Affymetrix PrimeView) and GSEA
Type: cell-based, human
Design: RFU PODN (11730768_x_at) / Fold change /veh PODN (11730768_x_at) / RFU LINC00158 (11744669_a_at) / Fold change /veh LINC00158 (11744669_a_at) / RFU DUSP10 (11751237_a_at) / Fold change /veh DUSP10 (11751237_a_at) / RFU ID3 (11757404_x_at) / Fold change /veh ID3 (11757404_x_at) / RFU PLEKHG5 (11737974_s_at) / Fold change /veh PLEKHG5 (11737974_s_at) / RFU LRRC4B (11730491_at) / Fold change /veh LRRC4B (11730491_at) / RFU GIMAP4 (11747438_a_at) / Fold change /veh GIMAP4 (11747438_a_at) / RFU KRT8 (11758183_x_at) / Fold change /veh KRT8 (11758183_x_at) / RFU CNN1 (11734310_a_at) / Fold change /veh CNN1 (11734310_a_at) / RFU VPS37D (11726825_at) / Fold change /veh VPS37D (11726825_at) / RFU C10orf10 (11716522_x_at) / Fold change /veh C10orf10 (11716522_x_at) / RFU KIR2DL2 /// KIR2DL4 /// KIR2DL5A /// KIR2DL5B /// KIR2DS1 /// KIR2DS2 /// KIR2DS3 /// KIR2DS4 /// KIR3DL3 /// KIR3DL3 /// KIR3DS1 (11738374_at) / Fold change /veh KIR2DL2 /// KIR2DL4 /// KIR2DL5A /// KIR2DL5B /// KIR2DS1 /// KIR2DS2 /// KIR2DS3 /// KIR2DS4 /// KIR3DL3 /// KIR3DL3 /// KIR3DS1 (11738374_at) / RFU C1QL1 (11718748_at) / Fold change /veh C1QL1 (11718748_at) / RFU TMPRSS4 (11747572_a_at) / Fold change /veh TMPRSS4 (11747572_a_at) / RFU HAMP (11756126_x_at) / Fold change /veh HAMP (11756126_x_at) / RFU RNFT2 (11725882_a_at) / Fold change /veh RNFT2 (11725882_a_at) / RFU NR4A2 (11747474_a_at) / Fold change /veh NR4A2 (11747474_a_at) / RFU ABCC12 (11746883_a_at) / Fold change /veh ABCC12 (11746883_a_at) / RFU TMEM136 (11760407_x_at) / Fold change /veh TMEM136 (11760407_x_at) / RFU CLDN22 /// WWC2 (11732394_at) / Fold change /veh CLDN22 /// WWC2 (11732394_at) / RFU HLA-DPB1 (11760878_x_at) / Fold change /veh HLA-DPB1 (11760878_x_at) / RFU SPINT1 (11716480_a_at) / Fold change /veh SPINT1 (11716480_a_at) / RFU GAP43 (11754022_s_at) / Fold change /veh GAP43 (11754022_s_at) / RFU A4GNT (11735810_at) / Fold change /veh A4GNT (11735810_at) / RFU PRB3 (11715151_x_at) / Fold change /veh PRB3 (11715151_x_at) / RFU TUBB4B (11761932_at) / Fold change /veh TUBB4B (11761932_at) / RFU CAPN14 (11732068_a_at) / Fold change /veh CAPN14 (11732068_a_at) / RFU TMCC2 (11721928_a_at) / Fold change /veh TMCC2 (11721928_a_at) / RFU IRGQ (11745062_a_at) / Fold change /veh IRGQ (11745062_a_at) / RFU FAM174B (11720279_a_at) / Fold change /veh FAM174B (11720279_a_at) / RFU TMPRSS4 (11748680_a_at) / Fold change /veh TMPRSS4 (11748680_a_at) / RFU FAM212B (11763350_a_at) / Fold change /veh FAM212B (11763350_a_at) / RFU PLEKHG5 (11743358_a_at) / Fold change /veh PLEKHG5 (11743358_a_at) / RFU ZSCAN30 (11745921_a_at) / Fold change /veh ZSCAN30 (11745921_a_at) / RFU CMKLR1 (11741424_a_at) / Fold change /veh CMKLR1 (11741424_a_at) / RFU LOC101060620 /// MAPK8IP1 (11723275_at) / Fold change /veh LOC101060620 /// MAPK8IP1 (11723275_at) / RFU SPTSSB (11747773_x_at) / Fold change /veh SPTSSB (11747773_x_at) / RFU PRSS12 (11739890_at) / Fold change /veh PRSS12 (11739890_at) / RFU BIN1 (11741810_x_at) / Fold change /veh BIN1 (11741810_x_at) / RFU WNT11 (11732464_a_at) / Fold change /veh WNT11 (11732464_a_at) / RFU C10orf10 (11716521_a_at) / Fold change /veh C10orf10 (11716521_a_at) / RFU C5orf56 (11738089_at) / Fold change /veh C5orf56 (11738089_at) / RFU CYB561 (11721691_x_at) / Fold change /veh CYB561 (11721691_x_at) / RFU ANKRD19P (11752326_a_at) / Fold change /veh ANKRD19P (11752326_a_at) / RFU OR2T12 /// OR2T33 /// OR2T8 (11738714_s_at) / Fold change /veh OR2T12 /// OR2T33 /// OR2T8 (11738714_s_at) / RFU VCAN (11748164_a_at) / Fold change /veh VCAN (11748164_a_at) / RFU JSRP1 (11732532_at) / Fold change /veh JSRP1 (11732532_at) / RFU KRTAP10-11 (11738290_x_at) / Fold change /veh KRTAP10-11 (11738290_x_at) / RFU MYO3A (11730013_a_at) / Fold change /veh MYO3A (11730013_a_at) / RFU EBF3 (11725865_a_at) / Fold change /veh EBF3 (11725865_a_at) / RFU CAMK2N1 (11719241_x_at) / Fold change /veh CAMK2N1 (11719241_x_at) / RFU C5orf56 (11738088_a_at) / Fold change /veh C5orf56 (11738088_a_at) / RFU OLFML3 (11715873_a_at) / Fold change /veh OLFML3 (11715873_a_at) / RFU LOC100653217 /// NTM (11731650_a_at) / Fold change /veh LOC100653217 /// NTM (11731650_a_at) / RFU MAPK11 (11762145_a_at) / Fold change /veh MAPK11 (11762145_a_at) / RFU FIZ1 (11724087_x_at) / Fold change /veh FIZ1 (11724087_x_at) / RFU OASL (11726364_x_at) / Fold change /veh OASL (11726364_x_at) / RFU SOX15 (11748057_x_at) / Fold change /veh SOX15 (11748057_x_at) / RFU CD79A (11719716_a_at) / Fold change /veh CD79A (11719716_a_at) / RFU HIST1H1D (11736915_at) / Fold change /veh HIST1H1D (11736915_at) / RFU CASKIN2 (11723855_a_at) / Fold change /veh CASKIN2 (11723855_a_at) / RFU LOC730098 (11760151_x_at) / Fold change /veh LOC730098 (11760151_x_at) / RFU OR4N2 (11742367_at) / Fold change /veh OR4N2 (11742367_at) / RFU PRRT2 (11749266_a_at) / Fold change /veh PRRT2 (11749266_a_at) / RFU SNX32 (11753110_a_at) / Fold change /veh SNX32 (11753110_a_at) / RFU CDHR5 (11726645_a_at) / Fold change /veh CDHR5 (11726645_a_at) / RFU RCAN1 (11760418_a_at) / Fold change /veh RCAN1 (11760418_a_at) / RFU FAM167A (11723789_a_at) / Fold change /veh FAM167A (11723789_a_at) / RFU FAM26E (11764081_at) / Fold change /veh FAM26E (11764081_at) / RFU ISYNA1 (11749810_s_at) / Fold change /veh ISYNA1 (11749810_s_at) / RFU ACY1 (11761880_at) / Fold change /veh ACY1 (11761880_at) / RFU 11764098_at / Fold change /veh 11764098_at / RFU SAMD14 (11745864_x_at) / Fold change /veh SAMD14 (11745864_x_at) / RFU NPB (11741838_a_at) / Fold change /veh NPB (11741838_a_at) / RFU TMPRSS6 (11731388_a_at) / Fold change /veh TMPRSS6 (11731388_a_at) / RFU KRTAP10-2 (11738614_at) / Fold change /veh KRTAP10-2 (11738614_at) / RFU ARHGAP8 /// PRR5-ARHGAP8 (11727945_x_at) / Fold change /veh ARHGAP8 /// PRR5-ARHGAP8 (11727945_x_at) / RFU KRTAP5-7 /// NADSYN1 (11734609_at) / Fold change /veh KRTAP5-7 /// NADSYN1 (11734609_at) / RFU RASL12 (11751679_a_at) / Fold change /veh RASL12 (11751679_a_at) / RFU CDKN2B (11736163_a_at) / Fold change /veh CDKN2B (11736163_a_at) / RFU PRF1 (11729649_at) / Fold change /veh PRF1 (11729649_at) / RFU, ZNF638 /// ZNF638-IT1 / Fold change vs veh, ZNF638 /// ZNF638-IT1 / RFU, PANK3 / Fold change vs veh, PANK3 / RFU, SH3YL1 / Fold change vs veh, SH3YL1 / RFU, ZEB2 / Fold change vs veh, ZEB2 / RFU, NRIP1 / Fold change vs veh, NRIP1 / RFU, PTTG1IP / Fold change vs veh, PTTG1IP / RFU, CAPN2 / Fold change vs veh, CAPN2 / RFU, MED14 / Fold change vs veh, MED14 / RFU, SNORA58 / Fold change vs veh, SNORA58 / RFU, C1orf63 / Fold change vs veh, C1orf63 / RFU, LRRFIP1 / Fold change vs veh, LRRFIP1 / RFU, NDUFAF7 / Fold change vs veh, NDUFAF7 / RFU, SLC12A2 / Fold change vs veh, SLC12A2 / RFU, IBTK / Fold change vs veh, IBTK / RFU, ESF1 / Fold change vs veh, ESF1 / Fold change vs veh, TMEM50B / RFU, TAOK1 / Fold change vs veh, TAOK1 / RFU, ACBD3 / Fold change vs veh, ACBD3 / RFU, TMA16 / Fold change vs veh, TMA16 / RFU, RWDD3 / Fold change vs veh, RWDD3 / RFU, BCAT1 / Fold change vs veh, BCAT1 / RFU, EDEM3 / Fold change vs veh, EDEM3 / RFU, TMEM33 / Fold change vs veh, TMEM33 / RFU, WDR75 / Fold change vs veh, WDR75 / RFU, AHCTF1 / Fold change vs veh, AHCTF1 / RFU, TFRC / Fold change vs veh, TFRC / RFU, ZDHHC17 / Fold change vs veh, ZDHHC17 / RFU, NOM1 / Fold change vs veh, NOM1 / RFU, ARL8B / Fold change vs veh, ARL8B / RFU, ZBTB11 / Fold change vs veh, ZBTB11 / RFU, TAMM41 / Fold change vs veh, TAMM41 / RFU, KIAA1704 /// LOC100996395 / Fold change vs veh, KIAA1704 /// LOC100996395 / RFU, ING1 / Fold change vs veh, ING1 / RFU, TRMT61B / Fold change vs veh, TRMT61B / RFU, FUBP3 / Fold change vs veh, FUBP3 / RFU, TP53 / Fold change vs veh, TP53 / RFU, TNKS2 / Fold change vs veh, TNKS2 / RFU, ZFP14 / Fold change vs veh, ZFP14 / RFU, ACTR2 / Fold change vs veh, ACTR2 / RFU, PPP3R1 / Fold change vs veh, PPP3R1 / RFU, PIK3R1 / Fold change vs veh, PIK3R1 / RFU, HNRNPA1 / Fold change vs veh, HNRNPA1 / RFU, RNF170 / Fold change vs veh, RNF170 / RFU, ZNF28 / Fold change vs veh, ZNF28 / RFU, RNGTT / Fold change vs veh, RNGTT / RFU, OGT / Fold change vs veh, OGT / RFU, BRD1 / Fold change vs veh, BRD1 / RFU, MARS / Fold change vs veh, MARS / RFU, ZNF655 / Fold change vs veh, ZNF655 / RFU, FAHD1 / Fold change vs veh, FAHD1 / RFU, BDP1 / Fold change vs veh, BDP1 / RFU, LRRCC1 / Fold change vs veh, LRRCC1 / RFU, ARID1A / Fold change vs veh, ARID1A / RFU, ZNF146 / Fold change vs veh, ZNF146 / RFU, ZNF330 / Fold change vs veh, ZNF330 / RFU, GPN3 / Fold change vs veh, GPN3 / RFU, C9orf123 / Fold change vs veh, C9orf123 / RFU, N4BP2L2 / Fold change vs veh, N4BP2L2 / RFU, ARFIP1 / Fold change vs veh, ARFIP1 / RFU, FAM179B / Fold change vs veh, FAM179B / RFU, BCL10 / Fold change vs veh, BCL10 / RFU, UHRF1BP1L / Fold change vs veh, UHRF1BP1L / RFU, BET1 / Fold change vs veh, BET1 / RFU, CNOT2 / Fold change vs veh, CNOT2 / RFU, ZNF268 / Fold change vs veh, ZNF268 / Fold change vs veh, ZNF507 / RFU, DGCR2 / Fold change vs veh, DGCR2 / RFU, WDSUB1 / Fold change vs veh, WDSUB1 / Fold change vs veh, HSP90B1 /// MIR3652 / RFU, ADSS / Fold change vs veh, ADSS / RFU, GK / Fold change vs veh, GK / RFU, ZNF148 / Fold change vs veh, ZNF148 / RFU, TAF9 / Fold change vs veh, TAF9 / RFU, SLC1A5 / Fold change vs veh, SLC1A5 / RFU, SLMO2 / Fold change vs veh, SLMO2 / RFU, ABCC4 / Fold change vs veh, ABCC4 / RFU, LOC101060439 /// RAP1B / Fold change vs veh, LOC101060439 /// RAP1B / RFU, RFX7 / Fold change vs veh, RFX7 / RFU, GTPBP10 / Fold change vs veh, GTPBP10 / RFU, CNEP1R1 / Fold change vs veh, CNEP1R1 / RFU, BIVM-ERCC5 /// ERCC5 / Fold change vs veh, BIVM-ERCC5 /// ERCC5 / RFU, ILF3 / Fold change vs veh, ILF3 / RFU 11762660_at / Fold change /veh 11762660_at / RFU VCAN (11757783_s_at) / Fold change /veh VCAN (11757783_s_at) / RFU DDX43 (11728927_at) / Fold change /veh DDX43 (11728927_at) / RFU KRT8 (11758188_x_at) / Fold change /veh KRT8 (11758188_x_at) / RFU NKD1 (11759106_at) / Fold change /veh NKD1 (11759106_at) / RFU SRD5A1 (11742802_a_at) / Fold change /veh SRD5A1 (11742802_a_at) / RFU TPSAB1 /// TPSB2 (11721975_s_at) / Fold change /veh TPSAB1 /// TPSB2 (11721975_s_at) / RFU GSTM3 (11746129_a_at) / Fold change /veh GSTM3 (11746129_a_at) / RFU IL23R (11737362_x_at) / Fold change /veh IL23R (11737362_x_at) / RFU TMEM51 (11727254_a_at) / Fold change /veh TMEM51 (11727254_a_at) / RFU PIWIL2 (11732686_x_at) / Fold change /veh PIWIL2 (11732686_x_at) / RFU ORM1 (11744905_x_at) / Fold change /veh ORM1 (11744905_x_at) / RFU CCDC152 (11743942_at) / Fold change /veh CCDC152 (11743942_at) / RFU ECM1 (11717891_a_at) / Fold change /veh ECM1 (11717891_a_at) / RFU IL23R (11748794_a_at) / Fold change /veh IL23R (11748794_a_at) / RFU TNFAIP8L3 (11732012_x_at) / Fold change /veh TNFAIP8L3 (11732012_x_at) / RFU MBOAT4 (11741988_at) / Fold change /veh MBOAT4 (11741988_at) / RFU 11764193_at / Fold change /veh 11764193_at / RFU TMEM53 (11763286_at) / Fold change /veh TMEM53 (11763286_at) / RFU MAGEB2 (11727129_at) / Fold change /veh MAGEB2 (11727129_at) / RFU TMEM200A (11744735_a_at) / Fold change /veh TMEM200A (11744735_a_at) / RFU CCDC152 (11751479_a_at) / Fold change /veh CCDC152 (11751479_a_at) / RFU FAM211A (11726209_a_at) / Fold change /veh FAM211A (11726209_a_at) / RFU RGS16 (11746705_a_at) / Fold change /veh RGS16 (11746705_a_at) / RFU VCAN (11755009_s_at) / Fold change /veh VCAN (11755009_s_at) / RFU RHOB (11743442_s_at) / Fold change /veh RHOB (11743442_s_at) / RFU RGS16 (11720943_a_at) / Fold change /veh RGS16 (11720943_a_at) / RFU RGS16 (11720944_at) / Fold change /veh RGS16 (11720944_at) / RFU, VPS4B / Fold change vs veh, VPS4B / RFU, CREB1 / Fold change vs veh, CREB1 / RFU, DNAJC13 / Fold change vs veh, DNAJC13 / RFU, GNAQ / Fold change vs veh, GNAQ / RFU, CDK5R1 / Fold change vs veh, CDK5R1 / RFU, ZRANB3 / Fold change vs veh, ZRANB3 / RFU, CUL4A / Fold change vs veh, CUL4A / RFU, CCNY / Fold change vs veh, CCNY / RFU, UFL1 / Fold change vs veh, UFL1 / RFU, COG3 / Fold change vs veh, COG3 / RFU, DIAPH2 / Fold change vs veh, DIAPH2 / RFU, SKA2 / Fold change vs veh, SKA2 / RFU, AFF3 / Fold change vs veh, AFF3 / RFU, LMF1 / Fold change vs veh, LMF1 / RFU, IPO11 / Fold change vs veh, IPO11 / RFU, DFFB / Fold change vs veh, DFFB / RFU, FOXP1 / Fold change vs veh, FOXP1 / RFU, CARD8 / Fold change vs veh, CARD8 / RFU, STRN3 / Fold change vs veh, STRN3 / RFU, ADK / Fold change vs veh, ADK / RFU, RASSF2 / Fold change vs veh, RASSF2 / RFU, WIPF1 / Fold change vs veh, WIPF1 / RFU, LARP1B / Fold change vs veh, LARP1B / RFU, RASA1 / Fold change vs veh, RASA1 / RFU, RB1 / Fold change vs veh, RB1 / RFU, PPFIA1 / Fold change vs veh, PPFIA1 / RFU, MAT2A / Fold change vs veh, MAT2A / RFU, CCT5 / Fold change vs veh, CCT5 / RFU, WDR92 / Fold change vs veh, WDR92 / RFU, CUX1 / Fold change vs veh, CUX1 / RFU, TTC7A / Fold change vs veh, TTC7A / RFU, TMEM135 / Fold change vs veh, TMEM135 / RFU, DEPTOR / Fold change vs veh, DEPTOR / RFU, CPM / Fold change vs veh, CPM / RFU, DNAJB6 / Fold change vs veh, DNAJB6 / RFU, CACNA2D3 / Fold change vs veh, CACNA2D3 / RFU, DTX4 / Fold change vs veh, DTX4 / RFU, TFCP2 / Fold change vs veh, TFCP2 / RFU, GMCL1 /// GMCL1P1 / Fold change vs veh, GMCL1 /// GMCL1P1 / RFU, AEBP2 / Fold change vs veh, AEBP2 / RFU, SNHG1 /// SNORD22 /// SNORD25 /// SNORD26 /// SNORD27 /// SNORD28 /// SNORD29 /// SNORD31 / Fold change vs veh, SNHG1 /// SNORD22 /// SNORD25 /// SNORD26 /// SNORD27 /// SNORD28 /// SNORD29 /// SNORD31 / Fold change (Aza/veh), C12orf56 (ProbeSet 11735607_a_at) / Fold change (ACY-1035/veh), C12orf56 (ProbeSet 11735607_a_at) / Fold change (Aza/veh), FGFR1OP (ProbeSet 11751329_s_at) / Fold change (ACY-1035/veh), FGFR1OP (ProbeSet 11751329_s_at) / Fold change (Aza/veh), VPS36 (ProbeSet 11739960_a_at) / Fold change (ACY-1035/veh), VPS36 (ProbeSet 11739960_a_at) / RFU SYPL1 (11715823_x_at) / Fold change /veh SYPL1 (11715823_x_at) / RFU IGFBP7 (11715501_s_at) / Fold change /veh IGFBP7 (11715501_s_at) / RFU REEP3 (11722064_at) / Fold change /veh REEP3 (11722064_at) / RFU IGLL1 (11728026_x_at) / Fold change /veh IGLL1 (11728026_x_at): dose or concentration left out as unconfirmed
Details: MV-4-11 cells, 48 hours

Nc1ccc(-c2cccs2)cc1NC(=O)c1ccc2c(c1)cc(C1CC1)n2CCN1CCOCC1 [ACY-1035]
RFU RGS16 (11720944_at): 40.38 RFU
